Test results taken from patent US20080206881A1, “DIAGNOSTIC MARKER FOR NEURODEGENERATIVE DISEASES” (priority 2007, published 2008).
“Also recorded” adds a separate entry of the source. Like-named read-outs stand apart in the source and are kept apart here.

Tests used:
ALS patients [1] = conditions: cited from earlier work
ALS patients [2] = experiment: Serum protein carbonyl determination in ALS patients (2,4-dinitrophenylhydrazine method); format: in vivo, human; conditions: for serum protein carbonyl level under high-dose vitamin E: ALS patients (n=12) on high-dose vitamin E for 10.4±2.5 months before starting melatonin
Excerpt: Protein carbonyl content of blood serum and other body fluids can be determined according to the 2,4-dinitrophenylhydrazine method described by Levine et al. (Levine Methods Enzymol 1990: 186: 464-478). The protein content can be measured according to Lowry et al. (Lowry J Biol Chem 1951: 193: 265-275) to enable a normalization of the protein carbonyl level. Other suitable methods and reagents known in the field to measure protein content and/or the content of protein carbonyls can also be used. Protein carbonyl measurements were performed in the serum of 19 consecutively admitted ALS patients (61.7±1.9 yr, 12 males, […] daily as suppositories at bedtime) and of ten healthy controls (61.2±2.0 years, five males, five females). Protein carbonyls were determined by a variant of the 2,4-dinitrophenylhydrazine method (Levine Methods Enzymol 1990: 186: 464-478). Serum was diluted 1:10 with ice-cold 5-mM pf potassium phosphate buffer, pH 7.5, containing leupeptin (0.5 μg/mL), aprotinin (0.5 μg/mL), and pepstatin A (0.7 μg/mL); 300 μL was used for a single determination. Deviations from the original procedure concerned elimination of the chromogen: protein pellets were washed three times with 1 mL of ethanol/ ethylacetate (1:1); particular attention was given to thorough resuspension (vortexing) and complete removal of the supernatant using Pasteur pipettes, and thereafter, stripes of blotting paper. Protein was measured according to Lowry et al. (Lowry J Biol Chem 1951: 193: 265-275).

ALS patients [3] = experiment: Clinical outcome (ALSFRS) of ALS patients with or without continuous high-dose vitamin E; format: in vivo, human; conditions: ALSFRS after 1 yr of melatonin treatment
Excerpt: Remarkably, most of these patients (n=12) had already been on high-dose vitamin E, another antioxidant, for 10.4±2.5 months before starting the melatonin treatment.

ALS = conditions: cited from earlier work; for clinical efficacy in ALS: clinical setting, literature
Alzheimer's disease (AD) = conditions: in vivo; cited from earlier work
ALS mouse model = conditions: high-dose oral melatonin; U.S. Pub. No. 2004/0192745; cited from earlier work

## Nc1nc2ccc(OC(F)(F)F)cc2s1 [RILUZOLE®, 2-amino-6-(trifluoromethoxxy)benzothiazole]
ALS patients [1]
  other important outcome measures: lacked benefit
  side effects: asthenia, nausea, anorexia, diarrhea, headache, and increase in liver transaminases; also recorded: enhances catabolism

## vitamin E
ALS patients [2]
  serum protein carbonyl level under high-dose vitamin E: does not change the level of serum protein carbonyls
ALS patients [2]; listed as Vitamin E
  serum protein carbonyl level under high-dose vitamin E: does not decrease the serum protein carbonyl level
ALS patients [3]
  clinical outcome (ALSFRS): did not reveal any beneficial effect
ALS; 10-yr prospective study with over 900,000 individuals, regular intake of vitamin E
  risk of developing ALS: decreased risk of developing ALS
ALS
  clinical efficacy in ALS: did not reveal any beneficial effect; also recorded: none of the antioxidative compounds tested, including vitamin E, proved to be effective
ALS; listed as Vitamin E
  clinical efficacy in ALS: ineffective in ALS treatment
Alzheimer's disease (AD)
  disease progression in AD: slowing of disease progression

## COc1ccc2[nH]cc(CCNC(C)=O)c2c1 [melatonin]
ALS patients [2]; ALS patients n=19, 300 mg melatonin daily as suppositories at bedtime, mean treatment time 4.68±0.22 months, versus matched healthy controls n=10
  serum protein carbonyl content after melatonin treatment: decrease to levels of matched healthy controls; also recorded: normalized to control values; also recorded: fully reverted to control levels; also recorded: normalizes the serum protein carbonyl level to control level
ALS mouse model
  survival of ALS mouse model: prolongation of survival; also recorded: exhibit efficacy
